Laboratory results: US12377155B2, “Bicyclic peptide ligands specific for PSMA” (BicycleRD Limited, priority 2018, dated 2025)

Molecular target: PSMA (Homo sapiens, UniProt Q04609)
Test: PSMA binding, fluorescence polarization assay
Settings: as shown in Table 1
Method: PSMA binding was measured using the fluorescence polarization assay methodology described in Shen et al (2013) PLOS ONE 8(7), […] and PSMA enzyme inhibition was measured using the methodology described in WO 2009/070302.
The peptide ligands of the invention were tested in the above mentioned PSMA binding and enzyme inhibition assays and the results are shown in Table 1: […]

Sequence of PSMA (Q04609 whole entry): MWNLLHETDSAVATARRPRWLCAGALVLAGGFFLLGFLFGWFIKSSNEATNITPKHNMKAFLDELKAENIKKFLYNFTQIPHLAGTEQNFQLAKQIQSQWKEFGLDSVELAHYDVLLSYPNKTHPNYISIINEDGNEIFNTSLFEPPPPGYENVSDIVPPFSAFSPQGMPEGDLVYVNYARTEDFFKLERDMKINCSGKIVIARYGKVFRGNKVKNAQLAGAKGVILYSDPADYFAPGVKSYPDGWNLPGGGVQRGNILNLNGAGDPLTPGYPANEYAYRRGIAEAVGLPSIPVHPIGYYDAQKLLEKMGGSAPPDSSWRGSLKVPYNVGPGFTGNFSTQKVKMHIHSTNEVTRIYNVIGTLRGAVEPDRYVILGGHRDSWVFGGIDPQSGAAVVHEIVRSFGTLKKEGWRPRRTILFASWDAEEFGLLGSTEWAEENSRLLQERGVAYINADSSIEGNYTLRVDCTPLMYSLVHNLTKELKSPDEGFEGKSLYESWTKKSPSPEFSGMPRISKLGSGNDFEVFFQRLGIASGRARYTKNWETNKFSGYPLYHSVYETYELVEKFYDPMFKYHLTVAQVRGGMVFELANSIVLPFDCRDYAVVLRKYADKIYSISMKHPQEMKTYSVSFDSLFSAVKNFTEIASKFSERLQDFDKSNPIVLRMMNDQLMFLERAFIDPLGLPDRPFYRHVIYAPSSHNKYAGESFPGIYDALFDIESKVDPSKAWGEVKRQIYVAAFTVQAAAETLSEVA

| Substance | PSMA binding (statement in words) |
| --- | --- |
| Ac-(D-E)VCWDCFM(Nle)EDGTCA-Sar6-(D-K) [21-31-04-T01-N009] | superior PSMA binding |
| EVCWDCFMMEDGTCA [21-31-04-T01-N001] | superior PSMA binding |
| FCSECYMMEDGTCA [21-31-11-T01-N001] | superior PSMA binding |
| LCMECYMMEDGTCA [21-31-12-T01-N001] | superior PSMA binding |
